We go through 1 substance from patent publication US8088753B2, “Heparin conjugates and methods” (Mediplex Corporation, Korea, priority 2007, dated 2012).

The subject of this experiment is SCC cells. The class given is in vivo, C3H/HeN mice. The settings on record: 5 mg/kg intraperitoneal twice weekly; Example 7, FIG. 8.

As for “bevacizumab: FDA-approved anti-angiogenic monoclonal antibody that binds the receptor binding domain of VEGF”, the “tumor growth inhibition compared with the control” value is listed as “about 74%”.
